Assay results taken from US8309064B2, “Skin care compositions comprising phenoxyalkyl amines” (Conopco, Inc., priority 2009, dated 2012).

What follows are compounds tested on Melanoderm tissue equivalent model MEL-300 containing melanocytes (assay: Inhibition of melanogenesis (total melanin content) in Melanoderm tissue equivalent model). Details: Melanocyte, 336 h; 5 μM in maintenance medium, 14 days, total melanin content, DMSO vehicle control.
Format: cell-based
Protocol: Melanoderm tissue equivalent model MEL-300 (MatTek: Ashland, Mass.) containing melanocytes obtained from dark skin individuals were cultured as per supplier instructions. Components were added to the maintenance medium phase (no topical treatments) at a final concentration of 5 μM for 14 days at which time the experiment was terminated and the tissues assessed for melanin content. Medium and treatments were changed three times per week. DMSO was utilized as the vehicle control and all treatments were performed at least in duplicate.
For quantification of total melanin, each Melanoderm was placed into an individual Eppendorf tube (2 mL) into which 250 μL of Solvable™ tissue solubilizer (Packard Bioscience Co., Cat#6NE9100) was added. Each tube was vortexed and incubated at 60° C. for 18 hours. Each sample was then centrifuged (5-minutes at 13,000 RPMs) to remove any particulates. 100 or 200 μL of supernatant were transferred to a 96 well microtiter plate and the absorbance read at 490 nm. Total melanin content was calculated from a standard curve using synthetic melanin (Sigma Cat# M8631). Data was analyzed for significance using the t-test in Microsoft Excel to generate p-values (p-values less than 0.01 represent 99% confidence, p values of 0.05 represent 95% confidence both of which are statistically significant).

For `OCCNCCCCCCOc1ccccc1` [5a, 2-(6-phenoxyhexylamino)ethanol], which inhibition at 5 µM is on record?
Its inhibition at 5 µM is 21.9%.

How did the inhibition at 5 µM turn out when `Cc1ccccc1OCCCCCCNCCO` [5b, 2-[[6-(2-methylphenoxy)hexyl]amino]-ethanol] was run?
Its inhibition at 5 µM is 24.1%.

With `CC(C)c1ccccc1OCCCCCCNC(C)(C)C` [5bb, 6-(2-isopropylphenoxy)-N-tert-butylhexan-1-amine] as the compound, how does the inhibition at 5 µM read?
The inhibition at 5 µM was 44.2%.

`COCCNCCCCCCOc1ccccc1C` [5c, 6-(o-tolyloxy)-N-(2-methoxyethyl)hexan-1-amine] was tested. Which inhibition at 5 µM did it give?
The inhibition at 5 µM was 31.7%.

For `CC(C)(C)NCCCCCCOc1ccccc1C(C)(C)C` [5cc, 6-(2-tert-butylphenoxy)-N-tert-butylhexan-1-amine], which inhibition at 5 µM is on record?
Its inhibition at 5 µM is 55.2%.

How did the inhibition at 5 µM turn out when `Cc1ccccc1OCCCCCNCCO` [5d, 2-(5-(o-tolyloxy)pentylamino)ethanol] was run?
Its inhibition at 5 µM is 20.8%.

Which inhibition at 5 µM does the source give for `CC(C)(C)NCCCCCCOc1ccccc1-c1ccccc1` [5dd, 6-(2-phenylphenoxy)-N-tert-butylhexan-1-amine] here?
The inhibition at 5 µM was 54.8%.

How did the inhibition at 5 µM turn out when `Cc1ccccc1OCCCCNCCO` [5e, 2-(4-(o-tolyloxy)butylamino)ethanol] was run?
Its inhibition at 5 µM is 17.9%.

Which inhibition at 5 µM does the source give for `CC(C)(C)NCCCCCCOc1cccc2ccccc12` [5ee, N-tert-butyl-6-(naphthalen-4-yloxy)hexan-1-amine] here?
The inhibition at 5 µM was 35.9%.

Which inhibition at 5 µM does the source give for `Cc1ccccc1OCCCNCCO` [5f, 2-(3-(o-tolyloxy)propyalmino)ethanol] here?
The inhibition at 5 µM was 10.7%.

For `CCNCCCCCCOc1ccccc1C` [5ff, 6-(o-tolyloxy)-N-ethylhexan-1-amine], which inhibition at 5 µM is on record?
The inhibition at 5 µM was 18.1%.

With `Cc1ccccc1OCCNCCO` [5g, 2-(2-(o-tolyloxy)ethylamino)ethanol] as the compound, how does the inhibition at 5 µM read?
Its inhibition at 5 µM is 3.2%.

`CCNCCCCCCOc1cccc2ccccc12` [5gg, N-ethyl-6-(naphthalen-1-yloxy)hexan-1-amine] was tested. Which inhibition at 5 µM did it give?
The inhibition at 5 µM was 35%.

For `CCNCCCCCCOc1ccccc1CC` [5hh, 6-(2-ethylphenoxy)-N-ethylhexan-1-amine], which inhibition at 5 µM is on record?
Its inhibition at 5 µM is 37.1%.

`Cc1ccccc1OCCCCCCNC(C)(C)C` [5i, 6-(o-tolyloxy)-N-tert-butylhexan-1-amine] was tested. Which inhibition at 5 µM did it give?
Its inhibition at 5 µM is 23.2%.

How did the inhibition at 5 µM turn out when `Cc1ccccc1OCCCCCCN` [5ii, 6-(o-tolyloxy)hexan-1-amine] was run?
Its inhibition at 5 µM is -6.9%.

For `Cc1ccccc1OCCCCCCN(C)C` [5j, 6-(o-tolyloxy)-N,N-dimethylhexan-1-amine], which inhibition at 5 µM is on record?
Its inhibition at 5 µM is 24.2%.

Which inhibition at 5 µM does the source give for `CC(=O)N(CCO)CCCCCCOc1ccccc1C` [5jj, N-(6-(o-tolyloxy)hexyl)-N-(2-hydroxyethyl)acetamide] here?
Its inhibition at 5 µM is -5.2%.

How did the inhibition at 5 µM turn out when `CCN(C)CCCCCCOc1ccccc1C` [5k, 6-(o-tolyoxy)-N-ethyl-N-methylhexan-1-amine] was run?
Its inhibition at 5 µM is 23.6%.

Which inhibition at 5 µM does the source give for `OCCNCCCCCCCc1ccccc1` [5kk, 2-(7-phenylheptylamino)ethanol] here?
The inhibition at 5 µM was 32.7%.

For `CCN(CC)CCCCCCOc1ccccc1C` [5l, 6-(o-tolyloxy)-N,N-diethylhexan-1-amine], which inhibition at 5 µM is on record?
Its inhibition at 5 µM is 45.6%.

How did the inhibition at 5 µM turn out when `OCCNCCCCCCOC1CCCCC1` [5ll, 2-(6-(cyclohexyloxy)hexylamino)ethanol] was run?
Its inhibition at 5 µM is 25%.

With `Cc1ccccc1OCCCCCCN(CCO)CCO` [5m, 6-(o-tolyloxy)-N,N-di(2-hydroxyethyl)hexan-1-amine] as the compound, how does the inhibition at 5 µM read?
The inhibition at 5 µM was 32.9%.

How did the inhibition at 5 µM turn out when `Cc1ccccc1OCCCCCCN1CCOCC1` [5n] was run?
Its inhibition at 5 µM is 42.1%.

With `Cc1ccccc1OCCCCCCn1ccnc1` [5o, 1-(6-(o-tolyloxy)hexyl)-1H-imidazole] as the compound, how does the inhibition at 5 µM read?
Its inhibition at 5 µM is 22.1%.

With `Cc1cccc(OCCCCCCN(C)C)c1` [5p, 6-(m-tolyoxy)-N,N-dimethylhexan-1-amine] as the compound, how does the inhibition at 5 µM read?
Its inhibition at 5 µM is 37.1%.

`Cc1ccc(OCCCCCCN(C)C)cc1` [5q, 6-(p-tolyoxy)-N,N-dimethylhexan-1-amine] was tested. Which inhibition at 5 µM did it give?
The inhibition at 5 µM was 41.5%.

For `CCc1ccccc1OCCCCCCN(C)C` [5r, 6-(2-ethylphenoxy)-N,N-dimethylhexan-1-amine], which inhibition at 5 µM is on record?
The inhibition at 5 µM was 32.9%.

`CC(C)c1ccccc1OCCCCCCN(C)C` [5t, 6-(2-isopropylphenoxy)-N,N-dimethylhexan-1-amine] was tested. Which inhibition at 5 µM did it give?
The inhibition at 5 µM was 48.5%.

How did the inhibition at 5 µM turn out when `CN(C)CCCCCCOc1ccccc1C(C)(C)C` [5u, 6-(2-tert-butylphenxoy)-N,N-dimethylhexan-1-amine] was run?
The inhibition at 5 µM was 49.6%.

How did the inhibition at 5 µM turn out when `CN(C)CCCCCCOc1ccccc1-c1ccccc1` [5v, 6-(2-phenylphenoxy)-N,N-dimethylhexan-1-amine] was run?
Its inhibition at 5 µM is 56.7%.

For `CN(C)CCCCCCOc1cccc2ccccc12` [5w, N,N-dimethyl-6-(naphthalen-4-yloxy)hexan-1-amine], which inhibition at 5 µM is on record?
The inhibition at 5 µM was 51.3%.

With `Cc1ccc(OCCCCCCNC(C)(C)C)cc1` [5y, 6-(p-tolyloxy)-N-tert-butylhexan-1-amine] as the compound, how does the inhibition at 5 µM read?
The inhibition at 5 µM was 47.5%.

Same assay, conditions: Melanoderm MEL-300, 5 μM, 14 days

Which “melanogenesis inhibition (in words)” value does the source give for `Cc1ccccc1OCCCCCCNCCO` [5b, 2-[[6-(2-methylphenoxy)hexyl]amino]-ethanol] here?
The value was “highest melanogenesis inhibition in this set”.

With `Cc1ccccc1OCCCCCNCCO` [5d, 2-(5-(o-tolyloxy)pentylamino)ethanol] as the compound, how does the “melanogenesis inhibition (in words)” value read?
Its value is “highest melanogenesis inhibition in this set”.
